How the values were obtained:
[1] = Antihypertensive action in conscious, unrestrained SHR (i.v.), Pharmacological Experiment 1; format: in vivo, spontaneously hypertensive rats (SHR); settings: 0.3 mg/kg i.v., change in blood pressure
Text: Catheters for blood pressure measurement and for drug administration were previously inserted into carotid artery and jugular vein of spontaneously hypertensive rats (SHR) weighing 350-450 g. […] The blood pressure was automatically measured and analyzed with a pressure transducer.

thoracic aorta = assay: Relaxation of phenylephrine-contracted thoracic aorta ring strips (vasodilation), Pharmacological Experiment 2; settings: Oryctolagus cuniculus; phenylephrine 10^-6 M; rabbit aorta ring strips; read-out: Vasodilation, IC50, concentration required to inhibit phenylephrine-induced contraction by half
Protocol: Male rabbits (weighing 1.9-3.0 kg) were anesthetized with sodium pentobarbital and dehematized to remove thoracic aorta. Ring strips (about 2 mm wide) were prepared and suspended in a 40 ml-Magnus bath filled with Krebs-Henseleit solution (NaCl 117 mM; KCl 4.7 mH; CaCl2 2.5 mH; MgSO4 1.2 mM; NaHCO3 24.8 mM; KH2 PO4 1.2 mM; glucose 11.0 mM). The resting tension of 2 g was applied. The Magnus bath was constantly aerated with a mixed gas (95% oxygen+5% carbon dioxide gas). The tension of the strips was measured by an isometric transducer (TB-611T, Nihon Kohden, Japan). The strips were contracted with phenylephrine (10^-6 M) and after the contraction became stable, the compounds were cumulatively added to the bath and relaxing response was observed. The vasodilating action of the compounds was expressed as IC50 (μM), the concentration required to inhibit phenylephurine-induced contraction (which was taken as 100%) by half.

left coronary artery = assay: Effect on coronary blood flow, perfused left coronary artery of anesthetized dogs, Pharmacological Experiment 3; format: in vivo, mongrel dog; settings: intracoronary injection; for Increase in coronary blood flow, ED50: dose giving half of the effect of 3 μg nifedipine
Protocol: Groups of 2 or 3 adult mongrel dogs were anesthetized with an intravenous administration of 30 mg/kg body weight of sodium pentobarbital. According to the method of Yago et al [Folia Pharmacologica Japonica, vol. 57, p. 380 (1961)], the left coronary artery was perfused and its blood flow was measured. Test compound was injected into the coronary artery at a volume of 10-300 μg. The effects of the test compound on coronary blood flow were expressed as ED50 (μg), the dose required to increase the coronary blood flow by a half of the effects by the coronary artery injection of 3 μg of nifedipine [dimethyl 2,6-dimethyl-4-(2-nitrophenyl)-1,4-dihydropyridine-3,5-dicarboxylate].
The half life (T 1/2, minute) was also measured as the duration of effects.

trachea = assay: Effect on acetylcholine-induced contraction of isolated trachea strips (bronchodilation), Pharmacological Experiment 4; parameters: species or system guinea pig (Hartley); settings: Cavia porcellus; acetylcholine 10^-6 M contraction; papaverine 10^-4 M response taken as 100%
Protocol: Male Hartley guinea pigs weighing 260-390 g were anesthetized with sodium pentobarbital (100 mg/kg, i.p.). The guinea pigs were then dehematized and trachea was isolated. Ventral cartilage of the trachea was incised and ligament was insected to give 3 mm wide strips. The strips were suspended in a 40 ml-Magnus bath filled with Krebs-Henseleit solution (NaCl 117 mM; KCl 4.7 mM; CaCl2 2.5 mM; MgSO4 1.2 mM; NaHCO3 24.8 mM; KH2 PO4 1.2 mM; glucose 11.0 mM). The resting tension of 1 g was applied. The Magnus bath was constantly aerated with a mixed gas (95% oxygen+5% carbon dioxide gas). The tension of the strips was measured with an isometric transducer (TB-611T, Nihon Kohden, Japan) and recorded on a recorder (Ti-102, Tokai Irika, Japan). The strips were contracted with acetylcholine (10^-6 M) and after the contraction became stable, the compounds were cumulatively added to the bath and relaxing response was observed. The relaxation by the compounds was expressed as IC50 (μM), the concentration required to inhibit the papaverine (10^-4 M)-induced response (which was taken as 100%) by half.

[2] = tested on: experimental asthma caused by histamine inhalation; assay: Effects on experimental asthma caused by histamine inhalation, Pharmacological Experiment 5; format: in vivo, guinea pig (Hartley); settings: 0.2% histamine
Protocol: According to Suyama [Allergy, vol. 15, p. 549 (1966)], female Hartley guinea pigs weighing 490-630 g were placed in an aerosol inhalation device, and 0.2% histamine solution (histamine chloride, Nakarai Kagaku, Japan) was sprayed with an ultrasonic nebulizer (TUR-3200, Nihon Kohden, Japan). Protective action was examined using collapsing as an index. Inhalation of the test compound was performed by placing the guinea pigs in the aforementioned aerosol inhalation device and spraying the test compound dissolved in a physiological saline to a predetermined concentration for 5 minutes. Then, the guinea pigs were allowed to immediately inhale histamine and delay in collapsing by dyspnea was measured.

Row | SMILES | Antihypertensive action (SHR i.v.) [1] [mmHg] | IC50 (thoracic aorta) [nM] | Increase in coronary blood flow, T 1/2 (half life as duration of effects) (left coronary artery) [min] | Increase in coronary blood flow, ED50 (left coronary artery) [µg] | IC50 (trachea) [nM] | Average time until collapsing ([2]; 0.01% inhaled for 5 minutes) [s] | Average time until collapsing ([2]; 0.1% inhaled for 5 minutes) [s]
1 | C[C@@H](N)[C@H]1CC[C@H](C(=O)Nc2ccnc3[nH]ccc23)CC1 [Example 3, (+)-trans-N-(1H-pyrrolo[2,3-b]pyridin-4-yl)-4-(1-aminoethyl)cyclohexanecarboxamide] | -62 | 90 | 2.7 | 8.8 | 60 | 152.4 ± 12.2 | 235.4 ± 40.2
2 | CC(C)(N)[C@H]1CC[C@H](C(=O)Nc2ccnc3[nH]ccc23)CC1 [Example 4, trans-N-(1H-pyrrolo[2,3-b]pyridin-4-yl)-4-(1-amino-1-methylethyl)cyclohexanecarboxamide] | -77 | 80 | 3.8 | 7.0 | 90 | – | –
3 | C[C@@H](N)[C@H]1CC[C@H](C(=O)Nc2ccnc3[nH]ncc23)CC1 [Example 6, (+)-trans-N-(1H-pyrazolo[3,4-b]pyridin-4-yl)-4-(1-aminoethyl)cyclohexanecarboxamide] | -96 | 120 | 3.0 | 4.3 | 170 | – | –
4 | CC(C)(N)[C@H]1CC[C@H](C(=O)Nc2ccnc3[nH]ncc23)CC1 [Example 7, trans-N-(1H-pyrazolo[3,4-b]pyridin-4-yl)-4-(1-amino-1-methylethyl)cyclohexanecarboxamido] | -53 | 190 | 6.7 | 20 | 310 | – | –

From patent US5478838A, “4-amino(alkyl)cyclohexane-1-carboxamide compound and use thereof” (Yoshitomi Pharmaceutical Industries, Ltd., priority 1991, dated 1995)
